Laboratory results published in ChEMBL document CHEMBL2062485, “Structural characterization and antimicrobial evaluation of atractyloside, atractyligenin, and 15-didehydroatractyligenin methyl ester” (2012).

How the values were obtained:
Format in all cases: functional
Staphylococcus aureus [1] = experiment: Antibacterial activity against floroquinilone-resistant Staphylococcus aureus SA1199B by MTT assay
Staphylococcus aureus [2] = experiment: Antibacterial activity against Staphylococcus aureus […] by MTT assay
Staphylococcus aureus [3] = experiment: Antibacterial activity against epidemic methicillin-resistant Staphylococcus aureus isolate 15 by MTT assay
Staphylococcus aureus [4] = experiment: Antibacterial activity against epidemic methicillin-resistant Staphylococcus aureus isolate 16 by MTT assay

Measured: MIC

C=C1C(=O)[C@@]23CC[C@@H]4[C@H](C(=O)OC)C[C@@H](O)C[C@@]4(C)[C@@H]2CC[C@H]1C3
128 µg/mL: all assays above
